Measurements as given in US4052514A, “Trihalosubstituted biphenylyl propionic acids” (The Boots Company Limited, priority 1971, dated 1977).

tested on: adjuvant arthritis; test: rat adjuvant arthritis test (chronic; killed human tubercle bacilli, compounds given daily by mouth for 21 days); assay type: in vivo; conditions: daily by mouth for 21 days, reference 2-(2-fluoro-4-biphenylyl)propionic acid = 1
Experimental: The best method of indicating long acting anti-inflammatory activity of the compounds is by means of a test in which compounds are administered chronically e.g. the rat adjuvant arthritis test. […] The adjuvant arthritis test conducted on the rat is, however a chronic test and is believed to give a good indication of the effectiveness of the compounds for the treatment of chronic conditions in humans. The adjuvant arthritis test is described by Newbould, B. B., in Br. J. Pharmac. Chemother., 1963, 21, 127. In the test arthritis is produced by injecting intradermally into the tail 0.1 ml. of a suspension of killed human tubercle bacilli (6 mg./ml.) in liquid paraffin BP. A polyarthritis develops over the next 3 weeks in untreated controls. The compounds under test (vehicle only for control animals) are given daily by mouth from the day the adjuvant is injected for 21 days. On day 21 the degree of arthritis is assessed on each hind foot. The degree of inhibition produced by a compound is estimated by comparison of the total arthritic scores with those found in the controls.
In the following Table are given the results in the adjuvant arthritis test for the four preferred compounds of the invention and 2-(2-fluoro-4-biphenylyl)propionic acid, the latter compound being used as a standard of reference in the adjuvant arthritis test.
As with the propionic acids of the invention the half-life of the compounds of the invention in the blood of the subject to which they are administered is a good indication of their duration of activity. The half-life may ve measured by giving oral doses of the compounds and determining levels in the plasma at various times thereafer, as previously described. As with the propionic acids of the invention one of the best methods of indicating long acting anti-inflammatory activity of the compounds is by means of a test in which compounds are administered chronically e.g. the rat adjuvant arthritis test.

Row | Compound | ADJUVANT ARTHRITIS (activity; 2-(2-fluoro-4-biphenylyl)propionic acid used as standard of reference)
1 | CC(C(=O)O)c1ccc(-c2ccccc2)c(F)c1 (stereo not drawn) [2-(2-fluoro-4-biphenylyl)propionic acid, reference compound] | 1
2 | CC(C(=O)O)c1ccc(-c2ccc(F)cc2F)c(Cl)c1 (stereo not drawn) [2-(2-chloro-2',4'-difluoro-4-biphenylyl)propionic acid] | > 10
3 | CC(C(=O)O)c1ccc(-c2ccc(Cl)cc2F)c(F)c1 (stereo not drawn) [2-(4'-chloro-2,2'-difluoro-4-biphenylyl)propionic acid] | > 3
4 | CC(C(=O)O)c1ccc(-c2ccc(F)cc2F)c(F)c1 (stereo not drawn) [2-(2,2',4'-trifluoro-4-biphenylyl)propionic acid] | > 10
5 | CC(C(=O)O)c1ccc(-c2ccc(F)cc2Cl)c(F)c1 (stereo not drawn) [2-(2'-chloro-2,4'-difluoro-4-biphenylyl)propionic acid] | > 3

same assay, conditions: standard of reference 2-fluoro-4-biphenylylacetic acid

Row | Compound | times as active as 2-fluoro-4-biphenylylacetic acid in adjuvant arthritis test
6 | O=C(O)Cc1ccc(-c2ccc(F)cc2F)c(F)c1 [2,2', 4'-trifluoro-4-biphenylacetic acid, 2,2',4'-trifluoro-4-biphenylylacetic acid] | more than 30 times
